Values of other authors as cited in patent US12606521B2, “Methods of treating cancer” (Institute For Cancer Research, priority 2020, dated 2026).

System: cancer cells
Conditions: combination with decitabine

SMILES: Cc1cc(C(C#N)c2ccc(Cl)cc2)c(Cl)cc1NC(=O)c1cc(I)cc(I)c1O (stereo not shown) [closantel]
- Interaction with decitabine in killing cancer cells: synergizes with decitabine
